Type in all cases: in vivo
Assay [1] deals with Solanum nigrum (SOLNI). Briefly: Post-emergence herbicidal glasshouse test on Solanum nigrum. Conditions: post-emergence; 1000 g/h; evaluated after 13 days. The method in brief: (§1)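 Scored on a five-point scale (1 = 0-19% to 5 = 80-100% damage) 13 days after treatment. Application rate 1000 g/h in acetone/water (50:50) containing 0.5% Tween 20, sprayed one day post-sowing for pre-emergence or eight days for post-emergence; glasshouse at 24/16° C, 14 h light, 65% humidity.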

The subject of assay [2] is Ipomoea hederacea (IPOHE). Briefly: Pre-emergence herbicidal glasshouse test on Ipomoea hederacea. Conditions: pre-emergence; 1000 g/h; evaluated after 13 days. Summed up:
as §1

Assay [3] concerns Ipomoea hederacea (IPOHE). Briefly: Post-emergence herbicidal glasshouse test on Ipomoea hederacea. The settings on record: post-emergence; 1000 g/h; evaluated after 13 days. The method in brief: as §1
The test system of assay [4] is Echinochloa crus-galli (ECHCG). Kind of assay: Pre-emergence herbicidal glasshouse test on Echinochloa crus-galli. Conditions: pre-emergence; 1000 g/h; evaluated after 13 days. Summed up: as §1
In assay [5] the test system is Setaria faberi (SETFA). Briefly: Post-emergence herbicidal glasshouse test on Setaria faberi. Conditions: post-emergence; 1000 g/h; evaluated after 13 days. Summed up:
as §1

The test system of assay [6] is Amaranthus retoflexus (AMARE). Kind of assay: Post-emergence herbicidal glasshouse test on Amaranthus retoflexus. Conditions: post-emergence; 1000 g/h; evaluated after 13 days. The method in brief: as §1
For assay [7], the system named is Amaranthus retoflexus (AMARE). Kind of assay: Pre-emergence herbicidal glasshouse test on Amaranthus retoflexus. The settings on record: pre-emergence; 1000 g/h; evaluated after 13 days. The method in brief:
as §1

The subject of assay [8] is Alopecurus myosuroides (ALOMY). Briefly: Pre-emergence herbicidal glasshouse test on Alopecurus myosuroides. Conditions: pre-emergence; 1000 g/h; evaluated after 13 days. The method in brief: as §1
In assay [9] the test system is Setaria faberi (SETFA). Briefly: Pre-emergence herbicidal glasshouse test on Setaria faberi. The settings on record: pre-emergence; 1000 g/h; evaluated after 13 days. Summed up:
as §1

Assay [10] deals with Alopecurus myosuroides (ALOMY). Kind of assay: Post-emergence herbicidal glasshouse test on Alopecurus myosuroides. The settings on record: post-emergence; 1000 g/h; evaluated after 13 days. The method in brief:
as §1

Assay [11] deals with Solanum nigrum (SOLNI). Briefly: Pre-emergence herbicidal glasshouse test on Solanum nigrum. The settings on record: pre-emergence; 1000 g/h; evaluated after 13 days. The method in brief: as §1
Assay [12] deals with Echinochloa crus-galli (ECHCG). Briefly: Post-emergence herbicidal glasshouse test on Echinochloa crus-galli. The settings on record: post-emergence; 1000 g/h; evaluated after 13 days. Summed up:
as §1

As to `Cn1ncc(-n2ccc(C(F)(F)F)c(-c3ccc(C#N)cc3)c2=O)c(O)c1=O` [Compound 7.031], the “POST Application SOLNI herbicidal damage (five point scale)” value (“POST Application SOLNI herbicidal damage” below) in the assay with Solanum nigrum (SOLNI) [1] is on record as 5 (5=80-100% damage). For the same molecule, in assay [2], the “PRE Application IPOHE herbicidal damage (five point scale)” value (from here on “PRE Application IPOHE herbicidal damage”) was 5 (5=80-100% damage). The “POST Application IPOHE herbicidal damage (five point scale)” value (from here on “POST Application IPOHE herbicidal damage”) in assay [3] was 5 (5=80-100% damage). For the same molecule, the “PRE Application ECHCG herbicidal damage (five point scale)” value (shortened to “PRE Application ECHCG herbicidal damage”) in assay [4] was 5 (5=80-100% damage). Also, the “POST Application SETFA herbicidal damage (five point scale)” value (shortened to “POST Application SETFA herbicidal damage”) in the assay on Setaria faberi (SETFA) [5] is 5 (5=80-100% damage). In addition, the “POST Application AMARE herbicidal damage (five point scale)” value (“POST Application AMARE herbicidal damage” below) in assay [6] was 5 (5=80-100% damage). In addition, the “PRE Application AMARE herbicidal damage (five point scale)” value (from here on “PRE Application AMARE herbicidal damage”) in assay [7] is 5 (5=80-100% damage). Also, the “PRE Application ALOMY herbicidal damage (five point scale)” value (from here on “PRE Application ALOMY herbicidal damage”) in assay [8] is 5 (5=80-100% damage). Further, in the assay on Setaria faberi (SETFA) [9], the “PRE Application SETFA herbicidal damage (five point scale)” value (from here on “PRE Application SETFA herbicidal damage”) was 5 (5=80-100% damage). In addition, the “POST Application ALOMY herbicidal damage (five point scale)” value (from here on “POST Application ALOMY herbicidal damage”) in assay [10] is on record as 5 (5=80-100% damage). Besides, the “PRE Application SOLNI herbicidal damage (five point scale)” value (shortened to “PRE Application SOLNI herbicidal damage”) with Solanum nigrum (SOLNI) [11] is listed as 5 (5=80-100% damage). Further, the “POST Application ECHCG herbicidal damage (five point scale)” value (shortened to “POST Application ECHCG herbicidal damage”) in assay [12] is 5 (5=80-100% damage).

For `Cc1ccc(Cl)c(-c2c(C(F)(F)F)ccn(-c3cnn(C)c(=O)c3O)c2=O)c1` [Compound 7.032], the “POST Application SOLNI herbicidal damage” value with Solanum nigrum (SOLNI) [1] is recorded as 5 (5=80-100% damage). In addition, the “PRE Application IPOHE herbicidal damage” value in [2] is given as 5 (5=80-100% damage). The “POST Application IPOHE herbicidal damage” value in assay [3] was 5 (5=80-100% damage). Moreover, the “PRE Application ECHCG herbicidal damage” value in assay [4] is 5 (5=80-100% damage). Further, the “POST Application SETFA herbicidal damage” value in the assay on Setaria faberi (SETFA) [5] was 5 (5=80-100% damage). Moreover, the “POST Application AMARE herbicidal damage” value in assay [6] is 5 (5=80-100% damage). Besides, the “PRE Application AMARE herbicidal damage” value in [7] is 5 (5=80-100% damage). Besides, the “PRE Application ALOMY herbicidal damage” value in [8] is reported as 4 (4=60-79% damage). The “PRE Application SETFA herbicidal damage” value in the assay with Setaria faberi (SETFA) [9] is given as 5 (5=80-100% damage). Also, the “POST Application ALOMY herbicidal damage” value in [10] is 3 (3=40-59% damage). Also, the “PRE Application SOLNI herbicidal damage” value in the assay with Solanum nigrum (SOLNI) [11] is given as 5 (5=80-100% damage). In [12], the “POST Application ECHCG herbicidal damage” value is reported as 5 (5=80-100% damage).

Regarding `COc1ccc(-c2c(C(F)(F)F)ccn(-c3cnn(C)c(=O)c3O)c2=O)cc1` [Compound 7.033], the “POST Application SOLNI herbicidal damage” value with Solanum nigrum (SOLNI) [1] is 5 (5=80-100% damage). Besides, the “PRE Application IPOHE herbicidal damage” value in assay [2] is 4 (4=60-79% damage). Besides, the “POST Application IPOHE herbicidal damage” value in [3] was 3 (3=40-59% damage). Moreover, in [4], the “PRE Application ECHCG herbicidal damage” value was 5 (5=80-100% damage). Moreover, in the assay on Setaria faberi (SETFA) [5], the “POST Application SETFA herbicidal damage” value is given as 5 (5=80-100% damage). Also, in assay [6], the “POST Application AMARE herbicidal damage” value was 5 (5=80-100% damage). For the same molecule, in assay [7], the “PRE Application AMARE herbicidal damage” value is listed as 5 (5=80-100% damage). Moreover, in [8], the “PRE Application ALOMY herbicidal damage” value is 5 (5=80-100% damage). In the assay with Setaria faberi (SETFA) [9], the “PRE Application SETFA herbicidal damage” value is given as 5 (5=80-100% damage). Also, the “POST Application ALOMY herbicidal damage” value in assay [10] is reported as 5 (5=80-100% damage). The “PRE Application SOLNI herbicidal damage” value in the assay with Solanum nigrum (SOLNI) [11] is given as 5 (5=80-100% damage). In addition, in assay [12], the “POST Application ECHCG herbicidal damage” value is 5 (5=80-100% damage).

For `C=Cc1ccccc1-c1c(C(F)(F)F)ccn(-c2cnn(C)c(=O)c2O)c1=O` [Compound 7.034], the “POST Application SOLNI herbicidal damage” value with Solanum nigrum (SOLNI) [1] is recorded as 5 (5=80-100% damage). Moreover, the “PRE Application IPOHE herbicidal damage” value in assay [2] is 1 (1=0-19% damage). Also, the “POST Application IPOHE herbicidal damage” value in [3] is on record as 2 (2=20-39% damage). Besides, the “PRE Application ECHCG herbicidal damage” value in assay [4] was 1 (1=0-19% damage). Also, in the assay on Setaria faberi (SETFA) [5], the “POST Application SETFA herbicidal damage” value is 3 (3=40-59% damage). The “POST Application AMARE herbicidal damage” value in assay [6] is reported as 5 (5=80-100% damage). In addition, in [7], the “PRE Application AMARE herbicidal damage” value is reported as 5 (5=80-100% damage). Also, the “PRE Application ALOMY herbicidal damage” value in assay [8] is 2 (2=20-39% damage). For the same molecule, in the assay on Setaria faberi (SETFA) [9], the “PRE Application SETFA herbicidal damage” value is listed as 1 (1=0-19% damage). For the same molecule, the “POST Application ALOMY herbicidal damage” value in [10] is 1 (1=0-19% damage). Besides, the “PRE Application SOLNI herbicidal damage” value in the assay on Solanum nigrum (SOLNI) [11] is recorded as 5 (5=80-100% damage). The “POST Application ECHCG herbicidal damage” value in assay [12] is reported as 3 (3=40-59% damage).

Turning to `Cn1ncc(-n2ccc(C(F)(F)F)c(-c3ccc(C(F)(F)F)cc3)c2=O)c(O)c1=O` [Compound 7.035], in the assay on Solanum nigrum (SOLNI) [1], the “POST Application SOLNI herbicidal damage” value is recorded as 5 (5=80-100% damage). In addition, the “PRE Application IPOHE herbicidal damage” value in [2] is 3 (3=40-59% damage). For the same molecule, in assay [3], the “POST Application IPOHE herbicidal damage” value is 4 (4=60-79% damage). In addition, the “PRE Application ECHCG herbicidal damage” value in assay [4] is reported as 5 (5=80-100% damage). Also, the “POST Application SETFA herbicidal damage” value with Setaria faberi (SETFA) [5] is 5 (5=80-100% damage). In addition, in assay [6], the “POST Application AMARE herbicidal damage” value is reported as 5 (5=80-100% damage). For the same molecule, the “PRE Application AMARE herbicidal damage” value in assay [7] is listed as 5 (5=80-100% damage). Besides, the “PRE Application ALOMY herbicidal damage” value in [8] is 5 (5=80-100% damage). Moreover, the “PRE Application SETFA herbicidal damage” value in the assay with Setaria faberi (SETFA) [9] is reported as 5 (5=80-100% damage). In assay [10], the “POST Application ALOMY herbicidal damage” value is 5 (5=80-100% damage). For the same molecule, the “PRE Application SOLNI herbicidal damage” value with Solanum nigrum (SOLNI) [11] is reported as 5 (5=80-100% damage). The “POST Application ECHCG herbicidal damage” value in assay [12] is on record as 5 (5=80-100% damage).
